For 81 compounds, viability results are on record in paper PMC12040169 (PLOS Biology, 2025).

The nature of the first data set: in vitro. The conditions noted are these: human, hela cells, % viability.
With `O=C1CCC(=O)N1CCOc1nccnc1N1CCN(CCc2ccc3ccccc3c2)CC1` [CBK084307], the viability at 28.5 h, 10 µM was 96.4%.
Still for that read-out and setting: next, `COc1ccc(CCNC(=O)N2CCCC2C(=O)O)cc1` (stereo not drawn) [CBK161386]: 116%.
On the same count and under the same terms, in the case of `c1ccc2nc(N3CCCC3)c(OC3CCOC3)nc2c1` (stereo not drawn) [CBK115769] it was 99.4%.
On the same count and under the same terms, next, `COc1ccc([C@@]23CCC(NC(=O)CCc4cccnc4)C[C@@H]2N(C)CC3)cc1OC` (stereo partly drawn) [CBK003770]: 92.8%.
On to `c1ccc(CNc2nc(-c3ccsc3)cn3ccnc23)cc1` [CBK037868], for which the viability at 28.5 h, 10 µM came out at 88%.
Still for that read-out and setting: in the case of `O=C(O)CCSc1nc2ccccc2n1CCOc1ccccc1` [CBK262555] it was 95.9%.
Still for that read-out and setting: next, `Cc1cc(NC(=O)C2CCN(C(=O)c3c(F)cccc3F)CC2)no1` [CBK304359]: 95.9%; `O=C(COc1ccc(S(=O)(=O)N2CCCCC2)cc1)N1CCC(Cc2ccccc2)CC1` [CBK268547]: 108%.
Still for that read-out and setting: next, `c1ccc(CC(Cc2nc3ccccc3[nH]2)c2nc3ccccc3[nH]2)cc1` (stereo not drawn) [CBK150452]: 107%.
As for `CCCn1cc(CN2CCC(O)(c3ccc(C)cc3)CC2)cn1` [CBK282737], the viability at 28.5 h, 10 µM is 103%.
Same read-out and setting: in the case of `Cc1nc(C2CCN(Cc3ccccc3)C2)c2ccccn12` (stereo not drawn) [CBK282111] it was 88.1%; in that of `CN(C)c1ccc(C(=O)N2CCC(c3cc4cnccc4[nH]3)CC2)cc1` [CBK283446], 83.8%; in that of `CC(=O)NCC(=O)N1C[C@@H]2CCCCN(Cc3cccc(F)c3)[C@@H]2C1` [CBK285515], 90.1%.
On the same count and under the same terms, in the case of `Fc1ccc(-c2c[nH]c([C@@H]3COCCN3Cc3ncc[nH]3)n2)cc1` [CBK289263] it was 95.5%; in that of `Cc1ccc(NC(=O)NCCC2=CCCCC2)cc1Cl` [CBK044135], 110%; in that of `O=C(O)c1ccc(-n2ccnc2)c(C#Cc2ccccc2)c1` [CBK284502], 89.5%.
Still for that read-out and setting: next, `CN1CCC(N(CCO)CC2(c3ccc(Cl)cc3)CC2)CC1` [CBK282781]: 96.6%; `O=C(O)CCNS(=O)(=O)c1cccc(F)c1` [CBK267264]: 115%; `Cc1ccc(OCC(=O)Nc2sc3c(c2C#N)CCCC3)cc1` [CBK263548]: 109%.
For the compound `CN(C)c1ccc(-c2nccnc2NS(=O)(=O)Cc2cccc(Cl)c2)cc1` [CBK050787], the viability at 28.5 h, 10 µM amounted to 102%.
Same read-out and setting: next, `S=C(Nc1ncn(Cc2ccc(Cl)c(Cl)c2)n1)Nc1ccc(Br)cc1Cl` [CBK266940]: 92.7%.
Still for that read-out and setting: next, `NS(=O)(=O)c1cc(C(=O)O)ccc1F` [CBK113180]: 81.1%; `Cc1cnn(C2CCCN(C(=O)CC3C(=O)Nc4ccccc43)C2)c1` (stereo not drawn) [CBK304930]: 81.7%.
Still for that read-out and setting: next, `COc1ccccc1-c1coc2cc(OC(=O)c3c(C)oc4ccc(OC(C)=O)cc34)ccc2c1=O` [CBK265191]: 92%; `S=C(NC1=NCCS1)Nc1ccccc1` [CBK016591]: 95.2%.
Consider `CC(O)Cc1nnc(SCC(=O)c2ccc([N+](=O)[O-])cc2)n1-c1ccccc1` (stereo not drawn) [CBK267389], for which the viability at 28.5 h, 10 µM was 81.1%.
Still for that read-out and setting: in the case of `CCN(CC)Cc1nccn1-c1ccc([N+](=O)[O-])cc1C(=O)c1ccccc1Cl` [CBK011562F] it was 105%; in that of `NS(=O)(=O)c1ccc(CCNC2CC(=O)N(Cc3cccs3)C2=O)cc1` (stereo not drawn) [CBK266579], 91.1%.
For the compound `Cc1ccc(Cl)cc1-n1cc(-c2ccc(F)cc2F)nn1` [CBK112995], the viability at 28.5 h, 10 µM was 89.2%.
With `COc1ccc(C(=O)NC2CCCNC2=O)s1` (stereo not drawn) [CBK282938], the viability at 28.5 h, 10 µM is 88.4%.
The same measure, in the same setting: next, `CCC(=O)N1C2CCC1c1cnc3cc(-c4ccco4)nn3c1C2` (stereo not drawn) [CBK284384]: 92.7%; `CC[C@H]1CN(C(C)=O)CC[C@H]1CC(=O)NCc1ccc2c(c1)OCO2` [CBK289131]: 89.2%; `c1ccc(-c2n[nH]c(-c3ccncc3)c2-c2nc3ccccc3[nH]2)cc1` [CBK262180]: 88%.
On the same count and under the same terms, in the case of `Cc1sc(NC(=O)c2ccc3c(c2)OCCO3)c(C(=O)NCc2cccnc2)c1C` [CBK268181] it was 90.8%; in that of `Cc1nc(CN2CCC3(CC2)CN(S(C)(=O)=O)c2ccccc23)cs1` [CBK126687], 96.3%.
On the same count and under the same terms, next, `S=C1NC2(CCCCC2)NC12CCCCC2` [CBK006533]: 98.5%; `Cc1ccc(-c2nnc(CNC(=O)Cc3ccccc3F)o2)s1` [CBK284644]: 78.4%.
Take `COc1ccccc1-c1cnc(N)c(N2CCN(CCO)CC2)n1` [CBK063403]: the viability at 28.5 h, 10 µM is 96.1%.
Same read-out and setting: next, `Cc1nc(C)c(CC(=O)Nc2cccc(CN3CCCC3)c2)s1` [CBK281426]: 105%; `COc1ccc(CN2Cc3nc[nH]c3C[C@H]2C(=O)NCc2ccccc2)c2ccccc12` [CBK288976]: 86.5%; `CN(C(=O)Cn1cccc(C(=O)NCC(C)(C)c2ccc(F)cc2)c1=O)C1CCCCC1` [CBK286112]: 108%.
In the case of `COc1ccccc1C(CNC(=O)Nc1cc(C)on1)N(C)C` (stereo not drawn) [CBK305028], the viability at 28.5 h, 10 µM was 97.8%.
The same measure, in the same setting: next, `Cc1nn([C@H]2C[C@@H](O)[C@@H](CO)O2)c(=O)[nH]c1=O` [CBK201185]: 97.3%; `CCc1ccccc1NC(=S)Nc1cccc(C)n1` [CBK288415]: 103%.
With `CCNc1cncc(-c2ccc(F)c(Cl)c2)n1` [CBK065322], the viability at 28.5 h, 10 µM worked out at 101%.
The same measure, in the same setting: in the case of `CCN(CC)CCn1c(=N)n(CC(=O)OC)c2ccccc21` [CBK262517B] it was 87.3%; in that of `CCc1nc(CNC(=O)c2cc3cc(F)ccc3n2C)no1` [CBK281414], 93.6%.
Still for that read-out and setting: in the case of `CCN(CC)CCCN1C(=O)CSC1c1ccc2c(c1)OCO2` (stereo not drawn) [CBK263482C] it was 102%; in that of `CCCNc1cncc(-c2ccc(OCC)cc2)n1` [CBK065845], 99.8%.
On the same count and under the same terms, in the case of `CC(NS(=O)(=O)c1ccc(CCC(=O)O)cc1)c1ccccc1` (stereo not drawn) [CBK267058] it was 88.1%; in that of `CC1(C)Cc2c(ccc3ccccc23)C(NC(Cc2c[nH]c3ccccc23)C(=O)O)=N1` (stereo not drawn) [CBK262569], 89.4%.
Consider `Clc1cccc(-c2cncc(NCc3ccc4c(c3)OCO4)n2)c1` [CBK065323], for which the viability at 28.5 h, 10 µM turned out to be 94.8%.
For `CC(=O)Nc1ccc(/C=N/c2ccccc2)cc1` [CBK012258], the viability at 28.5 h, 10 µM came to 96.4%.
As for `Cc1ccc(S(=O)(=O)NC(C)C(=O)Nc2cc(C(F)(F)F)ccc2Cl)cc1` (stereo not drawn) [CBK266546], the viability at 28.5 h, 10 µM stood at 109%.
With `COC(=O)c1c(C)c(C(C)=O)n(C)c1C` [CBK012459], the viability at 28.5 h, 10 µM stood at 117%.
`Nc1ncc(-c2ccco2)nc1N1CCOCC1` [CBK063456]: the viability at 28.5 h, 10 µM is 80.2%.
Still for that read-out and setting: in the case of `OC1(Cn2ccc3ncccc32)CCN(Cc2cccs2)CC1` [CBK284783] it was 88.3%; in that of `O=C(C1=C(O)C(=O)N(Cc2cccnc2)C1c1ccc(Cl)cc1Cl)c1ccccc1` (stereo not drawn) [CBK263367], 101%.
For `NS(=O)(=O)c1ccc(C(=O)N2CCC3(CCN(C(=O)Cc4c[nH]c5ccccc45)C3)C2)cc1` (stereo not drawn) [CBK131425], the viability at 28.5 h, 10 µM is 100%.
The same measure, in the same setting: next, `CN1CCC(N2CC[C@H](c3nnc(-c4cncn4C)o3)C2)CC1` [CBK289403]: 117%.
On the same count and under the same terms, next, `O=C(NCCCNC(=O)c1ccc(Br)o1)c1ccccn1` [CBK269430]: 107%; `Cc1ccc(Nc2nc(N)nc(-c3cc4ccccc4o3)n2)cc1` [CBK288222]: 105%.
Still for that read-out and setting: in the case of `CC(=O)c1ccc(S(=O)(=O)N2CCCCC2C)cc1` (stereo not drawn) [CBK069211] it was 90%; in that of `CN(C)c1nc2c(c(=O)[nH]c(=O)n2C)n1Cc1cccc2ccccc12` [CBK140560], 90.1%.
Consider `COC(=O)[C@@H]1CN(C(=O)c2cccs2)CCN1C(=O)c1cccnc1` [CBK289610], for which the viability at 28.5 h, 10 µM came to 87%.
`CC(=O)c1ccc(C)cc1OC(=O)C1CCCN(S(C)(=O)=O)C1` (stereo not drawn) [CBK306140]: the viability at 28.5 h, 10 µM worked out at 115%.
In the case of `Fc1ccc(CSc2nnnn2-c2ccc3c(c2)OCO3)cc1` [CBK293927], the viability at 28.5 h, 10 µM came out at 85.2%.
The same measure, in the same setting: in the case of `Cc1cccc(CC(=O)N2CCC(Cc3ccccc3-c3ccccc3)(C(N)=O)CC2)c1` [CBK285731] it was 103%; in that of `Cn1cc(CCN2CCC(C(=O)NC(=O)Nc3ccccc3)CC2)c2ccccc21` [CBK034867], 83.6%; in that of `Cc1ccsc1CNC(=O)OCC1CCN(C)CC1` [CBK200149], 96.9%.
With `COC(=O)c1ccc2c(=O)n(CC(C)C)c(SC)nc2c1` [CBK306042], the viability at 28.5 h, 10 µM worked out at 81.3%.
For the compound `CCOc1ccc(-c2ccnc(N3CCC(N(C)C)C3)n2)cc1C(=O)O` (stereo not drawn) [CBK307241], the viability at 28.5 h, 10 µM was 95%.
Same read-out and setting: in the case of `Cc1noc(NS(=O)(=O)c2ccc(NC(=O)/C=C/c3ccc(Cl)cc3Cl)cc2)c1C` [CBK263115] it was 90.4%.
Same read-out and setting: next, `CS(=O)(=O)Nc1ccc(-c2ccsc2)c2ccccc12` [CBK083742]: 98.7%.
Still for that read-out and setting: next, `Cc1cnc2c(N3CCCC3)nc(-c3cccnc3)cn12` [CBK092277]: 98.5%.
As to `Cc1ocnc1C(=O)NCC1CCN(c2ccccc2F)C1` (stereo not drawn) [CBK304671], the viability at 28.5 h, 10 µM came to 92.6%.
On the same count and under the same terms, next, `CN1CCC(C(=O)NC(=O)NCCOc2cccc3ccccc23)CC1` [CBK051100]: 90.1%; `CSc1ncc(Cl)c(C(=O)Nc2sc3c(c2C(=O)NCc2ccccc2)CCCC3)n1` [CBK268976]: 99.5%; `Cc1cnc(CNC(=O)N2CCN(C3CCN(C)CC3)CC2)cn1` [CBK155886]: 91.3%.
Same read-out and setting: in the case of `Cc1cc(C)n(CC(C)CNC(=O)Cc2csc(N3CCCC3=O)n2)n1` (stereo not drawn) [CBK305624] it was 91.2%.

The data set is the same for the next values; noted with them: human, hela cells, % viability, bulk resorufin, single well.
In the case of `CCOC(=O)C1(c2ccccc2)CCN(C(=O)COc2ccc(F)cc2)CC1` [CBK132176], the viability at 28.5 h, 10 µM is 93.8%.

For orientation: viability means a read-out of living cells in per cent, often relative to untreated cells.
